Activity calls are given as the source filed them. No cut-off for these calls is given here.
What was measured:
Format in all cases: functional, cell-based
HeLa [1] = assay: Upregulation of Fas in human HeLa cells at 5 to 20 uM after 24 hrs by Western blot analysis
HeLa [2] = assay: Induction of apoptosis in human HeLa cells assessed as increase in subG0/G1 ratio in presence of NAC by PI staining-based flow cytometry
HeLa [3] = assay: Upregulation of caspase-3 in human HeLa cells at 5 to 20 uM after 24 hrs by Western blot analysis
HeLa [4] = assay: Induction of apoptosis in human HeLa cells assessed as increase in Bax/Bcl-2 ratio at 5 to 20 uM after 24 hrs by Western blot analysis
HeLa [5] = assay: Induction of autophagy in human HeLa cells after 24 hrs in presence of 3MA by MDC staining-based flow cytometry
HeLa [6] = assay: Induction of apoptosis in human HeLa cells assessed as increase in subG0/G1 ratio after 24 hrs by PI staining-based flow cytometry
HeLa [7] = assay: Induction of apoptosis in human HeLa cells assessed as formation of apoptotic bodies at 10 uM after 24 hrs by phase contrast microscopic analysis
HeLa [8] = assay: Cytotoxicity against human HeLa cells assessed as inhibition of cell growth after 24 hrs in presence of 3MA by MTT assay
HeLa [9] = assay: Cytotoxicity against human HeLa cells assessed as inhibition of cell growth at 5 to 20 uM by MTT assay; conditions: TDE = time-dependent effect
HeLa [10] = assay: Induction of autophagy in human HeLa cells after 24 hrs by MDC staining-based flow cytometry
HeLa [11] = assay: Induction of autophagy in human HeLa cells at 10 uM after 24 hrs by MDC staining-based fluorescence microscopic analysis
HeLa [12] = assay: Induction of apoptosis in human HeLa cells assessed as increase in subG0/G1 ratio at 10 uM after 24 hrs in presence of ZVAD by PI staining-based flow cytometry
HeLa [13] = assay: Upregulation of FADD in human HeLa cells at 5 to 20 uM after 24 hrs by Western blot analysis
HeLa [14] = assay: Upregulation of beclin 1 in human HeLa cells at 5 to 20 uM after 24 hrs in presence of 3MA by Western blot analysis
HeLa [15] = assay: Induction of ROS generation in human HeLa cells at up to 5 uM after 24 hrs by H2DCF-DA staining-based flow cytometry
HeLa [16] = assay: Induction of autophagy in human HeLa cells assessed as conversion of LC3 1 to LC3 2 at 5 to 20 uM after 24 hrs by Western blot analysis
HeLa [17] = assay: Induction of ROS generation in human HeLa cells at 10 to 20 uM after 24 hrs by H2DCF-DA staining-based flow cytometry
HeLa [18] = assay: Induction ROS generation in human HeLa cells in presence of ZVAD by flow cytometry
HeLa [19] = assay: Induction of apoptosis in human HeLa cells assessed as nuclear fragmentation at 10 uM after 24 hrs by AO staining-based microscopic analysis
HeLa [20] = assay: Upregulation of caspase-8 in human HeLa cells at 5 to 20 uM after 24 hrs by Western blot analysis
HeLa [21] = assay: Induction of autophagy in human HeLa cells assessed as conversion of LC3 1 to LC3 2 at 5 to 20 uM after 24 hrs in presence of 3MA by Western blot analysis
HeLa [22] = assay: Induction of apoptosis in human HeLa cells assessed as increase in cytochrome c release from mitochondria to cytosol at 5 to 20 uM after 24 hrs by Western blot analysis
HeLa [23] = assay: Cytotoxicity against human HeLa cells assessed as inhibition of cell growth after 12 to 48 hrs by MTT assay
HeLa [24] = assay: Induction of ROS generation in human HeLa cells at 10 uM in presence of NAC by H2DCF-DA staining-based flow cytometry
HeLa [25] = assay: Induction of autophagy in human HeLa cells in presence of NAC by MDC staining-based flow cytometry
HeLa [26] = assay: Induction of autophagy in human HeLa cells preincubated at 10 uM in presence of ZVAD for 24 hrs by MDC staining-based flow cytometry
HeLa [27] = assay: Induction of apoptosis in human HeLa cells assessed as increase in subG0/G1 ratio preincubated with 3MA for 1 hr followed by compound treatment at 10 uM for 24 hrs by PI staining-based flow cytometry
HeLa [28] = assay: Upregulation of FasL in human HeLa cells at 5 to 20 uM after 24 hrs by Western blot analysis
HeLa [29] = assay: Upregulation of beclin 1 in human HeLa cells at 5 to 20 uM after 24 hrs by Western blot analysis
HeLa [30] = assay: Induction ROS generation in human HeLa cells in presence of 3MA by flow cytometry
HeLa [31] = assay: Induction of apoptosis in human HeLa cells assessed as chromatin condensation at 10 uM after 24 hrs by AO staining-based microscopic analysis
HeLa [32] = assay: Induction of apoptosis in human HeLa cells assessed as reduction in mitochondrial membrane potential at 5 to 20 uM after 24 hrs by Rhodamine123 staining-based flow cytometry

COc1ccc(-c2nc3cc(Oc4ccc5[nH]c(-c6ccc(OC)cc6)nc5c4)ccc3[nH]2)cc1
Activity (HeLa [1]): Active
Activity (HeLa [2]): inactive
Activity (HeLa [3]): Active
Activity (HeLa [4]): Active
Activity (HeLa [5]): inactive
Activity (HeLa [6]): Dose-dependent effect
Activity (HeLa [7]): Active
Activity (HeLa [8]): inactive
inhibition (HeLa [9]): Tde
Activity (HeLa [10]): Dose-dependent effect
Activity (HeLa [11]): Active
Activity (HeLa [12]): inactive
Activity (HeLa [13]): Active
Activity (HeLa [14]): inactive
Activity (HeLa [15]): Active
Activity (HeLa [16]): Active
Activity (HeLa [17]): inactive
Activity (HeLa [18]): inactive
Activity (HeLa [19]): Active
Activity (HeLa [20]): Active
Activity (HeLa [21]): inactive
Activity (HeLa [22]): Active
Activity (HeLa [23]): Dose-dependent effect
Activity (HeLa [24]): inactive
Activity (HeLa [25]): inactive
Activity (HeLa [26]): Active
Activity (HeLa [27]): inactive
Activity (HeLa [28]): Active
Activity (HeLa [29]): Active
Activity (HeLa [30]): inactive
Activity (HeLa [31]): Active
Activity (HeLa [32]): Active

— ChEMBL document CHEMBL4477256, “Newly synthesized bis-benzimidazole compound 8 induces apoptosis, autophagy and reactive oxygen species generation in HeLa cells” (Bioorg Med Chem Lett, 2016)
